These are literature values, as cited in patent US20220257592A1, “METHODS OF TREATING CANCER” (HOFFMANN-LA ROCHE INC., priority 2019, published 2022).

This data set addresses TrkB (Homo sapiens, UniProt Q16620). The note with it: cited from earlier work.

Sequence of TrkB (Q16620 32-822): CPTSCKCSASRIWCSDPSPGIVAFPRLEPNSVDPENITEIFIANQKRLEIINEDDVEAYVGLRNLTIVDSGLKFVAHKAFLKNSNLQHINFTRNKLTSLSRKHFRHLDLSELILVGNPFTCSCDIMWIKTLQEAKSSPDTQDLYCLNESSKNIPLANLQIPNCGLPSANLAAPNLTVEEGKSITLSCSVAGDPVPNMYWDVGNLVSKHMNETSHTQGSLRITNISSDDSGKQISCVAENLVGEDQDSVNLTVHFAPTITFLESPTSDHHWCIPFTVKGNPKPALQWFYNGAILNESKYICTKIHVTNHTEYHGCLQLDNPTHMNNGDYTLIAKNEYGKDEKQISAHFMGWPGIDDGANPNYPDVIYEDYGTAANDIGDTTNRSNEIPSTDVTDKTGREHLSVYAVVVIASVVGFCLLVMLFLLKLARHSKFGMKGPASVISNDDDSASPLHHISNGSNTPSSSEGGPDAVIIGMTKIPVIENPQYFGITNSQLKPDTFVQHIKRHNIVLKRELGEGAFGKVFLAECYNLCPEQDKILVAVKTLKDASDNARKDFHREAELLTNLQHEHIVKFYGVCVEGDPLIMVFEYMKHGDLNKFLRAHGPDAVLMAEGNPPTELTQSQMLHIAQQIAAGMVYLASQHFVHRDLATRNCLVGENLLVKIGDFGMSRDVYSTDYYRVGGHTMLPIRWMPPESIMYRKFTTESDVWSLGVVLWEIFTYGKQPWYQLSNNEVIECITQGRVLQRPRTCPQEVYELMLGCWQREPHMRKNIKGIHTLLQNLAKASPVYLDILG

On to `CN1CCN(c2ccc(C(=O)Nc3n[nH]c4ccc(Cc5cc(F)cc(F)c5)cc34)c(NC3CCOCC3)c2)CC1` [Entrectinib, N-[5-(3,5-difluorobenzyl)-1H-indazol-3-yl]-4-(4-methyl-piperazin-1-yl)-2-(tetrahydro-pyran-4-ylamino)-benzamide], for which the “inhibition of TrkB tyrosine kinase” value is “potent inhibitor”.
